Measured values: patent US4440784A, “Anti-inflammatory, analgesic, and antipyretic pharmaceutical composition” (Kanegafuchi Chemical Industry Company, Ltd., priority 1981, dated 1984)
Where two headings read alike, the source gives them in different places.

How the values were obtained:
[1] = tested on: acetic acid-induced writhing in mice; experiment: acetic acid-induced writhing in mice (analgesic activity); assay type: in vivo, male ddY strain mice; settings: po, read-out: Inhibition (writhing)
Experimental: An analgesic activity was evaluated by the method of acetic acid-induced writhing in mice [R. Koster et al., Federation Proc., 18, 412 (1959)]. Ten male ddY strain mice weighing 20~25 g were used in each group. Test compounds suspended in 2.5% acacia were administered p.o. to the mice. One hour later, the mice were injected i.p. with 0.6% acetic acid in a volume of 0.1 ml/10 g body weight. The number of writhes in each of mice was counted for 20 minutes after the injection of the acetic acid. Percent inhibition was calculated by the following equation. [formula]

[2] = tested on: carrageenan-induced paw edema in rats; experiment: carrageenan-induced paw edema in rats (acute anti-inflammatory activity); assay type: in vivo, male Wistar strain rats; settings: po, rat, p.o., 50 mg/kg
Experimental: (1) An acute anti-inflammatory activity was evaluated by the method of carrageenan-induced paw edema in rats [C. A. Winter et al., Proc. Soc. […] Six male Wistar strain rats weighing 150~180 g were used in each group. […] The volume of each paw edema was measured 3 and 5 hours after the injection of carrageenan. Percent edema inhibition was calculated by the following equation. [formula]

[3] = tested on: yeast-induced fever in rats; experiment: yeast-induced fever in rats (antipyretic activity); assay type: in vivo, male Wistar strain rats; settings: po, rat, p.o., 100 mg/kg
Experimental: Five male Wistar strain rats weighing 150~180 g were used in each group. A 20% Baker's yeast suspension in 0.9% NaCl was injected s.c. into the dorsal region of rats in a volume of 1 ml/100 g body weight. […] The rectal temperature was determined with a thermometer, 1, 3 and 5 hours after the administration of test compounds. Percent inhibition was calculated by the following equation. [formula]

[4] = toxicity test in mice (LD50); settings: in vivo, po; mouse, 14 days observation
Experimental: Female ICR strain mice weighing 20~25 g in groups of six each were used for toxicity tests. Test compounds suspended in 2.5% acacia were administered p.o. to the mice. The animals were observed daily for 14 days after the administration. The LD50 values were estimated from mortality (No. of dead mice/No. of mice used).

[5] = tested on: paper disk-induced granuloma in rats; experiment: paper disk-induced granuloma in rats (sub-chronic anti-inflammatory activity); assay type: in vivo, male Wistar strain rats; settings: rat, p.o. once daily for 7 days
Experimental: Six male Wistar strain rats weighing 150~180 g were used in each group. Each paper disk (29±1 mg) was implanted s.c. into the bilateral area of the scapula of rats under anesthesia with amobarbital sodium. […] The rats were killed on day 7, at which time the paper disks with surrounding granulomatous tissues were removed and dried to constant weight overnight, and weighed. Percent inhibition was calculated by the following equation. [formula]

[6] = tested on: adjuvant-induced arthritis in rats; experiment: adjuvant-induced arthritis in rats (chronic anti-inflammatory activity); assay type: in vivo, male Sprague-Dawley strain rats; settings: rat, p.o. once daily
Experimental: (3) A chronic anti-inflammatory activity was evaluated by the method of adjuvant-induced arthritis in rats [D. T. Walz et al., J. Pharmacol. and Exp. Ther., 178, 223 (1971)]. Eight male Sprague-Dawley strain rats weighing 190~230 g were used in each group. Into the left hind paw of rats was injected i.d. 0.5 mg of Mycobacterium butyricum suspended in 0.05 ml of paraffin oil. Test compounds suspended in 2.5% acacia were administered p.o. once daily for 21 days, starting on the day of the injection of an adjuvant (day 0). Paw volumes of adjuvant-injected and uninjected feet were measured on day 14 and on day 21. Percent inhibition was calculated by the following equation. [formula]

[7] = 3 hours after carrageenan, read-out: Percent edema inhibition, 3 hours
[8] = 5 hours after carrageenan, read-out: Percent edema inhibition, 5 hours
[9] = mouse, p.o., 100 mg/kg, 1 hour before acetic acid i.p.
[10] = 1 hour after administration, read-out: Inhibition (fever), 1 hour
[11] = 3 hours after administration, read-out: Inhibition (fever), 3 hours
[12] = 5 hours after administration, read-out: Inhibition (fever), 5 hours

Structure (SMILES)	inhibition in vivo at 100 mg/kg ([1]; Mus musculus)	inhibition in vivo at 50 mg/kg [2, 7]	inhibition in vivo at 50 mg/kg [2, 8]	inhibition in vivo at 100 mg/kg [1, 9]	inhibition in vivo at 100 mg/kg [3, 10]	inhibition in vivo at 100 mg/kg [3, 11]	inhibition in vivo at 100 mg/kg [3, 12]	LD50 at 336 h [4]	Inhibition (granuloma) ([5]; 25 mg/kg/day)	Inhibition (granuloma) ([5]; 100 mg/kg/day)	Inhibition, injected foot, Day 14 ([6]; 12.5 mg/kg/day)	Inhibition, injected foot, Day 21 ([6]; 12.5 mg/kg/day)	Inhibition, uninjected foot, Day 14 ([6]; 12.5 mg/kg/day)	Inhibition, uninjected foot, Day 21 ([6]; 12.5 mg/kg/day)	Inhibition, injected foot, Day 14 ([6]; 50 mg/kg/day)	Inhibition, injected foot, Day 21 ([6]; 50 mg/kg/day)	Inhibition, uninjected foot, Day 14 ([6]; 50 mg/kg/day)	Inhibition, uninjected foot, Day 21 ([6]; 50 mg/kg/day)
CC(=O)Oc1ccccc1C(=O)O [Aspirin, reference compound]	38%	–	–	–	–	–	–	–	–	–	–	–	–	–	–	–	–	–
CC(C)(C)c1cc(C=C(CCO)C(=O)O)cc(C(C)(C)C)c1O [Compound I, β-Carboxy-β-(2-hydroxyethyl)-3,5-di-tert-butyl-4-hydroxystyrene]	–	44.6%	41.6%	74.5%	53.1%	98.9%	70.3%	> 1000 mg/kg	–	–	–	–	–	–	–	–	–	–
COC(=O)C(=Cc1cc(C(C)(C)C)c(O)c(C(C)(C)C)c1)CCO [Compound II, β-Methoxycarbonyl-β-(2-hydroxyethyl)-3,5-di-tert-butyl-4-hydroxystyrene]	–	52.1%	41.7%	79.8%	42.5%	64.5%	59.7%	> 1000 mg/kg	–	–	–	–	–	–	–	–	–	–
CCC(=Cc1cc(C(C)(C)C)c(O)c(C(C)(C)C)c1)C(=O)O [Compound III, β-Carboxy-β-ethyl-3,5-di-tert-butyl-4-hydroxystyrene]	–	12.1%	18.3%	28.2%	14.6%	31.8%	19.5%	> 1000 mg/kg	–	–	–	–	–	–	–	–	–	–
CCOC(=O)C(=Cc1cc(C(C)(C)C)c(O)c(C(C)(C)C)c1)C(C)=O [Compound IV, β-Ethoxycarbonyl-β-acetyl-3,5-di-tert-butyl-4-hydroxystyrene]	–	30.3%	28.4%	56.9%	23%	40.9%	41.6%	> 1000 mg/kg	–	–	–	–	–	–	–	–	–	–
CC(C)(C)c1cc(C=C(C#N)C(N)=O)cc(C(C)(C)C)c1O [Compound IX, β-Carbamoyl-β-cyano-3,5-di-tert-butyl-4-hydroxystyrene]	–	40.8%	34.2%	50.7%	35.4%	77.3%	87%	> 1000 mg/kg	27.0%	25.0%	33.3%	46.1%	70.3%	42.6%	31.6%	29.6%	40.5%	42.6%
CC(=O)C(C)=Cc1cc(C(C)(C)C)c(O)c(C(C)(C)C)c1 [Compound VI, β-Acetyl-β-methyl-3,5-di-tert-butyl-4-hydroxystyrene]	–	32.5%	20.7%	47.8%	38.1%	45.5%	41.6%	> 1000 mg/kg	–	–	–	–	–	–	–	–	–	–
